From patent publication US20190117657A1, “METHOD OF INHIBITING HIGH FAT DIET-RELATED CONDITIONS” (South Australian Health and Medical Research Institute …, priority 2016, published 2019)

Tested on: MNKs
Test: eIF4E phosphorylation (P-eIF4E immunoblot) in 3T3-L1 cells as read-out of MNK activity
Type: cell-based
Excerpt: Similar data obtained in three replicate experiments.
The term “MNK inhibitor” as used herein is intended to refer to any compound that reduces the biological activity of MNK1 (including reducing the biological activity of one or both of splice variants MNK1 a and MNK1b) and/or MNK2 (including reducing the biological activity of one or both of splice variants MNK2a and MNK2b), including by reducing the amount of MNK1 and/or MNK2 expressed. For example, the MNK inhibitor may be a small organic molecule (also referred to as a “small molecule” herein), a peptide antagonist, an inhibitory antibody or fragment thereof, an interfering nucleotide molecule, an aptamer or other MNK inhibitor that inhibits the expression or biological activity as would be understood by those skilled in the art. The biological activity of MNK1 and MNK2 can be measured in a variety of ways, for example, by measuring phosphorylation of its substrate eIF4E to P-eIF4E using any suitable method known to those skilled in the art, for example, by performing an immunoblot or ELISA utilising a specific anti-P-eIF4E antibody, for example, the anti-phospho eIF4E (Ser209) antibody distributed by Merck Millipore, Catalogue No. 07-823 (Merck Millipore, Billerica, Mass., United States of America). […] Those skilled in the art will be aware of how to conduct suitable controls when measuring P-eIF4E levels. The MNK1 and/or MNK2 bioactivity can otherwise be measured using a cellular assay that can detect levels of MNK1 and/or MNK2 bioactivity. Antibodies that specifically detect phosphorylated MNK could also be used, for example, anti-P-MNK1 (Phospho-Mnk1 (Thr197/202) Antibody #2111; Cell Signaling Technology Inc, Danvers, Mass., United States of America). Additionally, those skilled in the art will appreciate that the MNK inhibitors should be safe for use for its intended purpose.
Tissues were harvested in RIPA lysis buffer containing 50 mM TrisHCl, pH 7.4, 150 mM NaCl, 1% Triton X-100, 0.1% sodium deoxycholate, 0.1% sodium dodecyl sulfate, 1 mM ethylenediaminetetraaacteic acid (EDTA), 50 mM β-glycerolphosphate, 0.5 mM NaVO3, 0.1% 2-mercaptoethanol and protease inhibitors (Roche). After lysis, insoluble material was removed by centrifugation at 12,000 g for 10 min at 4° C. Protein content was determined by the Bradford protein assay (Bio-Rad). Immunoblotting was performed as described in Liu et al. (2014). Blots were visualised using a LI-COR Odyssey® Quantitative Imaging System. Primary antibodies as indicated in Table 5 were from Cell Signaling Technologies, except for anti-P-eIF4E (Merck Millipore). Secondary antibodies were obtained from Thermo Fisher Scientific Inc. (Waltham, Mass., United States of America) and used at 1:20,000 dilution.
MNKs are the only kinases known to phosphorylate eIF4E, and accordingly, the phosphorylation of eIF4E (P-eIF4E) provides a direct read-out of MNK biological activity.
Since eIF4E is only phosphorylated by the MNKs, its phosphorylation status is a reliable read-out of intracellular MNK activity. […] MNK2 is the main MNK in 3T3-L1 cells and in adipose tissue (Moore et al., 2016). In additional studies, tests were conducted to assess the effect of the MNK-I2 inhibitor on the induction of differentiation markers in 3T3-L1 cells.

Compound | Comments (ability to inhibit MNKs, eIF4E phosphorylation)
Cc1c(C(=O)NCC(C)(C)CN(C)C)sc2ncnc(Nc3ccc(F)cc3OC(C)C)c12 [MNK-7P] | Good activity
COc1cc(F)ccc1Nc1ncnc2sc(C(=O)NCC(C)(C)CN(C)C)c(C)c12 [MNK-5P] | Moderate activity
COc1cc(F)ccc1Nc1ncnc2sc(C(=O)N3CCCC3)c(C)c12 [MNK-5X] | Almost inactive
Cc1c(C(=O)NCCc2ccncc2)sc2ncnc(Nc3ccc(F)cc3OC(C)C)c12 [MNK-7U] | Good activity
COc1cc(F)ccc1Nc1ncnc2sc(C(=O)N3CCCCC3)c(C)c12 [MNK-5J] | inactive
Cc1c(C(=O)N2CCOCC2)sc2ncnc(Nc3ccc(F)cc3OC(C)C)c12 [MNK-7K] | Almost inactive
Cc1c(C(=O)N2CCCCC2)sc2ncnc(Nc3ccc(F)cc3OC(C)C)c12 [MNK-7J] | inactive
Cc1c(C(=O)OCCCO)sc2ncnc(Nc3ccc(F)cc3OC(C)C)c12 [MNK-7L] | Partial activity
Cc1c(C(=O)NCCc2c[nH]cn2)sc2ncnc(Nc3ccc(F)cc3OC(C)C)c12 [JX-MNK-7S] | Good activity
Cc1c(C(=O)OCCc2ccccc2)sc2ncnc(Nc3ccc(F)cc3OC(C)C)c12 [MNK-7T] | inactive
Cc1c(C(=O)NCCCO)sc2ncnc(Nc3ccc(F)cc3OC(C)C)c12 [MNK-7I] | Partially active
COc1cc(F)ccc1Nc1ncnc2sc(C(=O)NCCCN3CCCC3)c(C)c12 [MNK-5M] | Good activity
Cc1c(C(=O)NC2CCCCC2)sc2ncnc(Nc3ccc(F)cc3OC(C)C)c12 [MNK-7W] | Partial activity
COc1cc(F)ccc1Nc1ncnc2sc(C(=O)NC3CCCCC3)c(C)c12 [MNK-5W] | Moderate activity
COc1cc(F)ccc1Nc1ncnc2sc(C(=O)NCCc3ccncc3)c(C)c12 [MNK-5U] | Moderate activity
Cc1c(C(=O)N2CCCC2)sc2ncnc(Nc3ccc(F)cc3OC(C)C)c12 [MNK-7X] | Partial actvitiy
COc1cc(F)ccc1Nc1ncnc2sc(C(=O)N3CCN(C)CC3)c(C)c12 [MNK-5V] | Almost inactive
COc1cc(F)ccc1Nc1ncnc2sc(C(=O)NCCCN3CCOCC3)c(C)c12 [MNK-5O] | Good activity
COc1cc(F)ccc1Nc1ncnc2sc(C(=O)N3CCOCC3)c(C)c12 [MNK-5K] | Almost inactive
COc1cc(F)ccc1Nc1ncnc2sc(C(=O)NCCc3c[nH]cn3)c(C)c12 [MNK-5S] | Moderate activity
Cc1c(C(=O)N2CCN(C)CC2)sc2ncnc(Nc3ccc(F)cc3OC(C)C)c12 [MNK-7V] | Partial activity
Cc1c(C(=O)OCCO)sc2ncnc(Nc3ccc(F)cc3OC(C)C)c12 [MNK-7F] | Weak activity
Cc1c(C(=O)NCCCN2CCOCC2)sc2ncnc(Nc3ccc(F)cc3OC(C)C)c12 [MNK-7O] | Good activity
